Assay results taken from article PMC8757604 (Journal of Enzyme Inhibition and Medicinal Chemistry, 2022).
Entries after “also recorded” stand apart in the source; their conditions may differ.

Tests used:
[1] = molecular target: T1, α-amylase from hog pancreas (Sus scrofa, UniProt P00690); experiment: α-Amylase inhibition assay (starch/DNS, absorbance 540 nm)
T1 sequence (P00690 16-511): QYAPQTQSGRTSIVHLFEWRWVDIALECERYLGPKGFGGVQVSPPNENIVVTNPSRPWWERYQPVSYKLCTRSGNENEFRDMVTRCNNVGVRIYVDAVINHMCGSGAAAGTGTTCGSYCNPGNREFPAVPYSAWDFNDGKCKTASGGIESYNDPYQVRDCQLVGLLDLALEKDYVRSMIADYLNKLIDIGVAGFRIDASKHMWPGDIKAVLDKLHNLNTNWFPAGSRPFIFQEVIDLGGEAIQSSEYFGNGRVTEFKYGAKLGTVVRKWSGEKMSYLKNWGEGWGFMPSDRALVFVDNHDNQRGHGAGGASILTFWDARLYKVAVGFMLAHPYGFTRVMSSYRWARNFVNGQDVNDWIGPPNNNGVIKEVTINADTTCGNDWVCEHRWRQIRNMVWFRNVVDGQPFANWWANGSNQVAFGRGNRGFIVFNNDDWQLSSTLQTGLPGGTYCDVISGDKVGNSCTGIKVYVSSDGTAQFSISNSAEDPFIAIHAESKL

[2] = molecular target: T2, α-Glucosidase from Saccharomyces cerevisiae (Saccharomyces cerevisiae, UniProt P53341); experiment: α-Glucosidase inhibition kinetics (V vs [E], Lineweaver–Burk plots); format: biochemical; conditions: 3a 0-0.5 μM
Experimental: To probe into the inhibition mechanism of OA derivatives (3a–3t) against α-glucosidase, compound 3a with the strongest inhibitory activity was selected as the representative compound for the enzyme inhibitory kinetic analysis. […] The inhibition kinetic behaviours were investigated using the Lineweaver–Burk plots.
The enzyme inhibition kinetics analysis was investigated using previously reported method with minor modifications[25]^,[26]. In brief, inhibitory effect was determined from the plots of absorbance change of OA derivatives at different concentrations with enzyme at different concentrations. The inhibition type was measured based on the Lineweaver–Burk plot of absorbance change of OA derivatives at different concentrations with p-NPG substrate at different concentrations.

HepG2 cells = experiment: Cells cytotoxicity assay (MTT), HepG2; format: cell-based; conditions: 24 h treatment, under concentration of 100 µM
Experimental: (§1) 3T3–L1 or HepG2 cells were cultured in Dulbecco’s modified Eagle medium (DMEM) with 10% foetal bovine serum (FBS), 100 IU/mL penicillin and 100 IU/mL streptomycin at 37 °C under 5% CO2. 3T3-L1 cells (2 × 10^3) or HepG2 cells ([…]) were plated onto 96-well plate ([…]) and incubated for 24 h. After treated with compound (3a or 3f) for 24 h, the cells were added […] (0.5 mg/mL) and incubated for 4 h. Then […] was added to dissolve the blue insoluble MTT formazan. Finally, the absorbance was measured at 570 nm using a microplate reader. Each sample was performed in triplicate.

[3] = molecular target: T2, α-Glucosidase from Saccharomyces cerevisiae; experiment: biochemical; format: biochemical; conditions: for IC50: mean ± SD, enzyme 0.1 U/mL, p-NPG 0.25 mM, pH 6.8, 37 °C, read-out: α-Glucosidase inhibition (IC50)
3T3-L1 cells = experiment: Cells cytotoxicity assay (MTT), 3T3-L1; format: cell-based; conditions: 24 h treatment, under concentration of 100 µM
Experimental: as §1

[4] = molecular target: T1, α-amylase from hog pancreas; experiment: α-Amylase inhibition kinetics (V vs [E], Lineweaver–Burk plots); format: biochemical; design: α-amylase from hog pancreas (EC3.2.1.1); from tissue; host or cells: hog pancreas; conditions: 3f 0-15.0 μM
Text: Compound 3f with the strongest inhibitory activity against α-amylase was selected as the representative compound for the enzyme inhibitory kinetic analysis.
The enzyme inhibition kinetics analysis was investigated. The operation method was similar with the assay of α-glucosidase, except the concentrations of test compound, enzyme and substrate.

T2 sequence (P53341 whole entry): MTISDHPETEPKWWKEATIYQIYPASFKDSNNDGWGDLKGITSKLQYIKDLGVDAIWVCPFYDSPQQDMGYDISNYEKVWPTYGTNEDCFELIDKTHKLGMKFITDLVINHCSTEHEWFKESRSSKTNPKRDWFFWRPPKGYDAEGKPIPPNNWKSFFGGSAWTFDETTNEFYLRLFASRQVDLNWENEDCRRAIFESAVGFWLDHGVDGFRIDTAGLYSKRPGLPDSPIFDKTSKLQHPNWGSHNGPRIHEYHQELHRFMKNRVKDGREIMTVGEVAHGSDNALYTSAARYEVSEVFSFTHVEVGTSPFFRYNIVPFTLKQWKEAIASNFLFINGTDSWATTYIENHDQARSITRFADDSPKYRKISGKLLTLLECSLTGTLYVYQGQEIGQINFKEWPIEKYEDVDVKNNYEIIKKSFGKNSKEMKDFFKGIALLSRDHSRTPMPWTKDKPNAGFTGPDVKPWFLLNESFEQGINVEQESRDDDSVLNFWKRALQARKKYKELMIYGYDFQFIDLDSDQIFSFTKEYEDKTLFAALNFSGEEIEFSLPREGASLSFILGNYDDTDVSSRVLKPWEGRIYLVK

| Compound | IC50 [1] [µM] | IC50 [3] [µM] | further results |
| --- | --- | --- | --- |
| CC1(C)CCC2(C(=O)O)CCC3(C)C(=CCC4C5(C)CCC(=NOC(=O)C=Cc6ccccc6)C(C)(C)C5CCC43C)C2C1 (stereo not shown) [Compound 3a] | 7.86 ± 1.24 | 0.35 ± 0.06 | Inhibition type towards α-glucosidase ([2]; Lineweaver–Burk plots): mixed-type inhibitor; also recorded: mixed types; Reversibility of α-glucosidase inhibition ([2]; plots of V vs [E]): reversible; Cytotoxicity to HepG2 cells (HepG2 cells): non-cytotoxic; α-glucosidase inhibition, times stronger than OA ([3]; ratio of IC50 vs OA): ~11 times; α-glucosidase inhibition, times stronger than acarbose ([3]; ratio of IC50 vs acarbose): ~1900 times; Cytotoxicity to 3T3-L1 cells (3T3-L1 cells): non-cytotoxic |
| Cc1ccc(/C=C/C(=O)O/N=C2\CC[C@@]3(C)C(CC[C@]4(C)C3CC=C3C5CC(C)(C)CC[C@]5(C(=O)O)CC[C@]34C)C2(C)C)cc1 (stereo partly shown) [Compound 3b] | 15.3 ± 1.41 | 0.68 ± 0.03 |  |
| COc1ccc(/C=C/C(=O)O/N=C2\CC[C@@]3(C)C(CC[C@]4(C)C3CC=C3C5CC(C)(C)CC[C@]5(C(=O)O)CC[C@]34C)C2(C)C)cc1 (stereo partly shown) [Compound 3c] | 25.4 ± 1.17 | 0.89 ± 0.07 |  |
| CC1(C)CC[C@]2(C(=O)O)CC[C@]3(C)C(=CCC4[C@@]5(C)CC/C(=N\OC(=O)/C=C/c6ccc(F)cc6)C(C)(C)C5CC[C@]43C)C2C1 (stereo partly shown) [Compound 3d] | 17.5 ± 1.52 | 1.45 ± 0.12 |  |
| CC1(C)CC[C@]2(C(=O)O)CC[C@]3(C)C(=CCC4[C@@]5(C)CC/C(=N\OC(=O)/C=C/c6ccc(Cl)cc6)C(C)(C)C5CC[C@]43C)C2C1 (stereo partly shown) [Compound 3e] | 5.64 ± 1.29 | 0.95 ± 0.06 |  |
| CC1(C)CCC2(C(=O)O)CCC3(C)C(=CCC4C5(C)CCC(=NOC(=O)C=Cc6ccc(Br)cc6)C(C)(C)C5CCC43C)C2C1 (stereo not shown) [Compound 3f] | 3.8 ± 0.65 | 1.28 ± 0.03 | α-amylase inhibition, times better than OA ([1]; ratio of IC50 vs OA): ~25 times; α-amylase inhibition, times better than acarbose ([1]; ratio of IC50 vs acarbose): ~26 times; Cytotoxicity to HepG2 cells (HepG2 cells): non-cytotoxic; Inhibition type towards α-amylase ([4]; Lineweaver–Burk plots): mixed types; also recorded: mixed-type inhibitor; Reversibility of α-amylase inhibition ([4]; plots of V vs α-amylase concentration): reversible; Cytotoxicity to 3T3-L1 cells (3T3-L1 cells): non-cytotoxic |
| CC1(C)CC[C@]2(C(=O)O)CC[C@]3(C)C(=CCC4[C@@]5(C)CC/C(=N\OC(=O)/C=C/c6ccc(C(F)(F)F)cc6)C(C)(C)C5CC[C@]43C)C2C1 (stereo partly shown) [Compound 3g] | 12.6 ± 2.37 | 3.13 ± 0.13 |  |
| CC1(C)CC[C@]2(C(=O)O)CC[C@]3(C)C(=CCC4[C@@]5(C)CC/C(=N\OC(=O)/C=C/c6ccc([N+](=O)[O-])cc6)C(C)(C)C5CC[C@]43C)C2C1 (stereo partly shown) [Compound 3h] | 18.3 ± 1.92 | 1.36 ± 0.03 |  |
| CC1(C)CC[C@]2(C(=O)O)CC[C@]3(C)C(=CCC4[C@@]5(C)CC/C(=N\OC(=O)/C=C/c6ccc7c(c6)OCO7)C(C)(C)C5CC[C@]43C)C2C1 (stereo partly shown) [Compound 3i] | 17.9 ± 1.21 | 0.71 ± 0.02 |  |
| CC1(C)CC[C@]2(C(=O)O)CC[C@]3(C)C(=CCC4[C@@]5(C)CC/C(=N\OC(=O)/C=C/c6ccc(O)cc6)C(C)(C)C5CC[C@]43C)C2C1 (stereo partly shown) [Compound 3j] | 70.8 ± 2.31 | 0.82 ± 0.09 |  |
| CC1(C)CC[C@]2(C(=O)O)CC[C@]3(C)C(=CCC4[C@@]5(C)CC/C(=N\OC(=O)c6ccccc6)C(C)(C)C5CC[C@]43C)C2C1 (stereo partly shown) [Compound 3k] | 25.6 ± 1.66 | 0.67 ± 0.04 |  |
| Cc1ccc(C(=O)O/N=C2\CC[C@@]3(C)C(CC[C@]4(C)C3CC=C3C5CC(C)(C)CC[C@]5(C(=O)O)CC[C@]34C)C2(C)C)cc1 (stereo partly shown) [Compound 3l] | 55.3 ± 2.39 | 0.99 ± 0.05 |  |
| COc1ccc(C(=O)O/N=C2\CC[C@@]3(C)C(CC[C@]4(C)C3CC=C3C5CC(C)(C)CC[C@]5(C(=O)O)CC[C@]34C)C2(C)C)cc1 (stereo partly shown) [Compound 3m] | 35.5 ± 2.41 | 1.1 ± 0.1 |  |
| CC1(C)CC[C@]2(C(=O)O)CC[C@]3(C)C(=CCC4[C@@]5(C)CC/C(=N\OC(=O)c6ccc(F)cc6)C(C)(C)C5CC[C@]43C)C2C1 (stereo partly shown) [Compound 3n] | 70.2 ± 2.53 | 1.96 ± 0.25 |  |
| CC1(C)CC[C@]2(C(=O)O)CC[C@]3(C)C(=CCC4[C@@]5(C)CC/C(=N\OC(=O)c6ccc(Cl)cc6)C(C)(C)C5CC[C@]43C)C2C1 (stereo partly shown) [Compound 3o] | 26.3 ± 1.61 | 1.74 ± 0.14 |  |
| CC1(C)CC[C@]2(C(=O)O)CC[C@]3(C)C(=CCC4[C@@]5(C)CC/C(=N\OC(=O)c6ccc(Br)cc6)C(C)(C)C5CC[C@]43C)C2C1 (stereo partly shown) [Compound 3p] | 15.9 ± 1.75 | 1.81 ± 0.05 |  |
| CC1(C)CC[C@]2(C(=O)O)CC[C@]3(C)C(=CCC4[C@@]5(C)CC/C(=N\OC(=O)c6ccc(C(F)(F)F)cc6)C(C)(C)C5CC[C@]43C)C2C1 (stereo partly shown) [Compound 3q] | 33.6 ± 1.93 | 3.43 ± 0.17 |  |
| CC1(C)CC[C@]2(C(=O)O)CC[C@]3(C)C(=CCC4[C@@]5(C)CC/C(=N\OC(=O)c6ccc([N+](=O)[O-])cc6)C(C)(C)C5CC[C@]43C)C2C1 (stereo partly shown) [Compound 3r] | 70.7 ± 1.25 | 1.41 ± 0.12 |  |
| CC1(C)CC[C@]2(C(=O)O)CC[C@]3(C)C(=CCC4[C@@]5(C)CC/C(=N\OC(=O)c6ccc7c(c6)OCO7)C(C)(C)C5CC[C@]43C)C2C1 (stereo partly shown) [Compound 3s] | 18.7 ± 1.29 | 1.37 ± 0.06 |  |
| CC1(C)CC[C@]2(C(=O)O)CC[C@]3(C)C(=CCC4[C@@]5(C)CC/C(=N\OC(=O)c6ccc(O)cc6)C(C)(C)C5CC[C@]43C)C2C1 (stereo partly shown) [Compound 3t] | 152 ± 4.24 | 0.91 ± 0.04 |  |
